From the RepoRT retention time repository come the findings set out here.

This data set can be described thus: Agilent ZORBAX 300 SB-C18, 150 × 1 mm, 3.5 µm; A: water + 0.01% heptafluorobutyric acid; B: acetonitrile + 0.01% heptafluorobutyric acid; gradient (min/%B) 0/0 100/90. The note with it: stereoisomer not certain.
On to `CN(C)C(=N)N(C)C`, for which the LC retention time was determined as 6.49 min. For the compound `Cc1cc(C)c(C=CC(=O)c2cccs2)c(C)c1`, the LC retention time was determined as 18.2 min. Regarding `C=CCNC1CCCC1`, the LC retention time was 7.45 min.

As for `CCCCc1ccc(NC(=O)c2ccc(OC(C)=O)cc2)cc1`, the LC retention time is 16.5 min. On to `CN1C(=O)NC(c2ccc(O)cc2)C2=C1CN(Cc1ccccc1)C2=O` (stereo not drawn), for which the LC retention time came to 9.6 min. As to `CC=CC=CC(=O)Nc1ccc(C=CC(=O)c2ccccc2)cc1`, the LC retention time came out at 15.7 min. On to `CC1CCCN1` (stereo not drawn), for which the LC retention time is 5.96 min. In the case of `NNc1cccc2ncccc12`, the LC retention time came out at 8.48 min. On to `CCCCc1c(O)c2ccccc2n(-c2ccccc2)c1=O`, for which the LC retention time is 14.5 min. For `COCCCN1CCC(CN)C1` (stereo not drawn), the LC retention time stood at 7.37 min.

As for `CN(C)CCO`, the LC retention time was found to be 3.24 min. Take `O=C(O)c1cncc(C(=O)O)c1`: the LC retention time worked out at 3.03 min.

As to `CC(C)Cn1c2ccccc2c2ccccc21`, the LC retention time was determined as 19.5 min. With `Oc1ccc2c(c1)C13CCCCC1(O)C(C2O)N(CC1CCC1)CC3` (stereo not drawn), the LC retention time was determined as 8.68 min. With `COC(=O)CCc1ccc(C)c(N)c1`, the LC retention time came out at 9.03 min. Turning to `O=C1NCCCC1C(=O)N1CCN(C(=O)c2ccco2)CC1` (stereo not drawn), the LC retention time is 7.34 min. For the compound `CC(=O)c1cccc(NC(=O)c2ccc(C)cc2)c1`, the LC retention time was 13 min. On to `Nc1ccn(CC(O)CO)c(=O)n1` (stereo not drawn), for which the LC retention time amounted to 4.4 min. For the compound `CNCCC=C1c2ccccc2CCc2ccccc21`, the LC retention time worked out at 11.7 min. The same measure for `CC1=CC(=O)C(C)(C)NC1`: 6.78 min. The same measure for `O=C(CCCCCN1C(=O)c2ccccc2C1=O)Nc1cccc(C(=O)O)c1`: 11.6 min; for `NC(=O)CCCc1c[nH]c2ccccc12`: 9.42 min. `S=c1nccc(-c2ccc3ccccc3c2)[nH]1`: the LC retention time came to 10.6 min. Take `CC1CC(O)(CC(O)(c2ccccc2)c2ccccc2)C(C)CN1C` (stereo not drawn): the LC retention time stood at 10.2 min.

As to `Cc1cc(C)c(CO)cc1C=NNC(N)=O`, the LC retention time amounted to 8.66 min. The same measure for `CCN(CC)c1ccc(C(=O)NCC(C)C)cc1`: 11.7 min. The same measure for `NNC(=O)CCCO`: 2.37 min; for `CC1CCN(C(=O)C2CCCNC2)CC1` (stereo not drawn): 8.27 min. Regarding `O=C(O)c1c(-c2ccccc2)c(-c2ccccc2)n[nH]c1=O`, the LC retention time came out at 9.72 min. As for `NCCCNCCN`, the LC retention time turned out to be 7.42 min. For the compound `CN(C)CCNC1=CC(=O)CC(c2ccccc2)C1` (stereo not drawn), the LC retention time worked out at 8.55 min. `CC(=O)Nc1ccc(CCC(=O)O)cc1`: the LC retention time worked out at 7.92 min.

`Cc1ccc(C=C2CN(C)CC(=Cc3ccc(C)cc3)C2=O)cc1`: the LC retention time is 12.3 min. In the case of `CN(C)C(CN)c1ccco1` (stereo not drawn), the LC retention time was determined as 7.02 min.

Take `CC(COc1ccccc1)NC(C)C(O)c1ccc(O)cc1` (stereo not drawn): the LC retention time is 9.89 min. With `CCCC(=O)Nc1ccc(N)cc1`, the LC retention time worked out at 7.75 min. For the compound `CC(C)(C)C(=O)NNc1ccccc1`, the LC retention time was 10.5 min. As to `Nc1cccc(CCC(=O)O)c1`, the LC retention time was found to be 7.06 min.

With `NNC(=O)C(O)C(O)C(=O)NN` (stereo not drawn), the LC retention time was determined as 1.94 min. For `Nc1nc(=O)n2c(n1)oc1ccccc12`, the LC retention time was 7.8 min. The same measure for `Cc1c(N=Cc2ccncc2)c(=O)n(-c2ccccc2)n1C`: 8.92 min; for `Cc1ccc(CCC(=O)O)cc1N`: 7.58 min; for `CCNCC(O)CC` (stereo not drawn): 6.36 min.

On to `Nc1ccc2c(c1)oc1ccccc12`, for which the LC retention time amounted to 11.6 min. For `Cc1cc(=O)[nH]c(N)n1`, the LC retention time turned out to be 5.97 min. The figure for `c1cncc(CNc2c3c(nc4ccccc24)CCC3)c1` is 8.56 min; for `CN(C)Cc1c(N)cc2ccccc2c1-c1ccccc1` it is 8.82 min; for `Nc1cccc(C2OCCCO2)c1` it is 7.87 min. As for `CNCCc1ccccc1`, the LC retention time came out at 7.97 min. As to `COC1=CC(=O)C(=O)C=C1OC`, the LC retention time came to 7.13 min. The figure for `Cc1ccc(NC2=NCC(C)S2)cc1C` (stereo not drawn) is 9.88 min; for `NC(=O)c1cc2c(ccc3ccccc32)oc1=O` it is 11.1 min; for `CN1CCCCC1=O` it is 7.29 min. For the compound `CC1=NC(=O)NC(c2ccccc2)C1C(=O)OCc1ccccc1` (stereo not drawn), the LC retention time was found to be 12.6 min. The figure for `Cc1ccc2c(c1)C1CN(C)CCC1N2C(=O)CN1CCCCC1` (stereo not drawn) is 7.91 min; for `CCN(CC)C(=O)c1cc(NC(=O)c2ccc3c(c2)c(=O)n(C)c(=O)n3C)c(OC)c(OC)c1` it is 11.7 min; for `NC(=O)CNc1ccc(C(N)=O)cc1` it is 5.59 min.

As to `Nc1ccc(OCc2ccccc2)cc1`, the LC retention time came out at 9.84 min. Take `CCN(CC)CCN(CC)CC`: the LC retention time is 7.19 min.

For `CCOc1ccc(C(c2c[nH]c3ccccc23)c2c[nH]c3ccccc23)cc1`, the LC retention time amounted to 17.2 min. `COc1ccc(NC(=O)c2ccc(C)cc2)c(OC)c1`: the LC retention time amounted to 14.2 min. For `COC(=O)CC1CN=C(N2CCCCC2)NC1=O` (stereo not drawn), the LC retention time is 7.95 min. On to `Cc1nc(=S)c2ccccc2[nH]1`, for which the LC retention time stood at 9.45 min.

For `CN1COc2ccc3ccccc3c2C1`, the LC retention time amounted to 9.56 min. Take `CCCCn1c2ccccc2n2cc(C(C)(C)C)nc12`: the LC retention time was 12.2 min. On to `c1coc(C2=NCCN2)c1`, for which the LC retention time was 6.73 min.

As to `COc1c(C)cccc1C(=O)NC(CC(C)C)C(N)=O` (stereo not drawn), the LC retention time is 11.2 min.

Regarding `O=c1c2n[nH]nc2cnn1-c1ccccc1`, the LC retention time came to 8.76 min. For the compound `CC(C)OC(=O)C(C)Nc1n[nH]c(=O)[nH]c1=O` (stereo not drawn), the LC retention time is 8.55 min. Turning to `O=c1[nH]c(=O)n(CCc2ccccc2)c2c1CN(C1CCCC1)CN2`, the LC retention time came out at 8.61 min.

As to `CC(=O)Oc1ccccc1C(=O)NC(C)(C)C`, the LC retention time amounted to 11.2 min. For `O=C(O)c1cc(-c2ccccc2)c(C(=O)O)cn1`, the LC retention time was determined as 6.42 min. Turning to `CC(=O)CNC(C)(C)C(C)=O`, the LC retention time amounted to 5.92 min. For the compound `Nc1ccc2nccnc2c1`, the LC retention time was determined as 7.1 min. The same measure for `Cc1n[nH]c(=O)nc1NC1CCCCC1`: 8.28 min; for `CCCCN(C)CCCC`: 8.6 min; for `O=C(Nc1cccnc1)c1cnccn1`: 7.28 min. `Cc1cc(=O)n(-c2ccc(C(=O)O)cc2)[nH]1`: the LC retention time was found to be 8.05 min.

Turning to `CCN(CC)CC(=O)Nc1c(C)ccc(O)c1C`, the LC retention time came to 8.16 min.

Take `CC(C)C(N)C(C)(C)O` (stereo not drawn): the LC retention time worked out at 7.04 min. Turning to `CN(C)CCN(C)C`, the LC retention time was found to be 7.04 min. For `C[N+](C)(C)c1cnc(=O)[nH]c1`, the LC retention time came to 2.5 min. Regarding `CCNc1ccccc1`, the LC retention time came to 7.68 min. With `N=c1oc2ccccc2cc1C(=O)Nc1ccc(Oc2ccccc2)cc1`, the LC retention time turned out to be 13 min. Regarding `CNC1CCCCC1`, the LC retention time was 7.45 min.

Regarding `OCc1ccccc1CN1CCCC1`, the LC retention time was 7.7 min. The same measure for `O=C(O)Cn1cnc2ccccc2c1=O`: 7.3 min; for `CCN(CC)CCC(O)(c1ccccc1)C1CCCCC1` (stereo not drawn): 11.3 min. Regarding `O=C(NN=Cc1ccc(O)c(O)c1)c1ccc(NC(=O)c2ccccc2)cc1`, the LC retention time worked out at 10.2 min. In the case of `Cc1ccc(-n2cnnn2)nc1`, the LC retention time came to 9.44 min.

`CC(=O)Nc1ccc(O)cc1`: the LC retention time came to 6.65 min. Take `CCC(C)C1(CC)C(=O)NC(=O)NC1=O` (stereo not drawn): the LC retention time is 9.71 min. For `C=CCN1CCC23c4c5ccc(O)c4OC2C(O)C=CC3C1C5` (stereo not drawn), the LC retention time amounted to 8.18 min. The figure for `COc1ccc(NC(=O)Nc2ccc(OC)c(OC)c2)cc1OC` is 10.2 min. As for `COc1ccc2c(c1C)CCC1=C(C)C(=O)CCC12C` (stereo not drawn), the LC retention time turned out to be 17 min. The figure for `CN(C)C=CC=O` is 5.98 min.

As for `CCNCC(=O)Nc1c(C)cccc1C`, the LC retention time was found to be 8.77 min. Consider `CN(C)CCN(C)CCN(C)CCN(C)C`, for which the LC retention time stood at 7.61 min. With `NCCc1ccccn1`, the LC retention time was found to be 6.83 min. Take `CC(C)Cc1ccc(C(C)C(=O)NCCCn2c3ccccc3c3ccccc32)cc1` (stereo not drawn): the LC retention time was 20.1 min. The figure for `O=C(O)CCNc1cc(C(=O)O)ccc1C(=O)O` is 7.69 min; for `Nc1ccc2nc(-c3ccccc3)oc(=O)c2c1` it is 11.2 min. The figure for `COc1cc(OC)c2cc[nH]c2c1` is 11.1 min; for `O=C(C=Cc1ccccc1O)c1ccc(O)cc1O` it is 12.2 min; for `CC(C)c1cccc(C(C)C)c1NC(=O)COC(=O)CNC(=O)c1ccc(C(C)(C)C)cc1` it is 17.6 min. The same measure for `COc1ccc(C=CC(=O)C=Cc2ccc(OC)cc2OC)c(OC)c1`: 16.6 min. Consider `O=C(O)CCCc1ccncc1`, for which the LC retention time was 6.69 min. As for `O=C(NN=Cc1ccncc1)c1ccccc1`, the LC retention time was 8.3 min. In the case of `Cc1cc2c(s1)Nc1ccccc1N=C2N`, the LC retention time came to 9.24 min. For `CC=CC(=O)CC`, the LC retention time came to 9.41 min. In the case of `CCCCCCCN1C(=O)c2ccccc2C1(O)Cc1ccccc1` (stereo not drawn), the LC retention time worked out at 16.8 min.

As to `Nc1cccc2cc(-c3ccccc3)oc12`, the LC retention time was determined as 14.5 min. The figure for `c1ccc2c3c([nH]c2c1)CCCC3` is 15.7 min.
